Data set [1] is described as follows: Metabolic stability in rat liver microsomes. The format is in vitro ADME. Conditions: for half-life at 0.1 μmol/L: rat, pH 7.4.
Data set [2] addresses PDE10A (449–770) (Homo sapiens, UniProt Q9Y233). Description: In vitro enzymatic activity assay.
A short description of data set [3]: Metabolic stability in rat liver microsomes. The format is in vitro ADME. Conditions: RLM t1/2 (elimination half-life).
The target in data set [4] is PDE2A (580–919) (Homo sapiens, UniProt O00408). The data set is described as follows: In vitro enzymatic activity assay, PDE2A.
Data set [5] has as its system monocrotaline (MCT)-induced PAH rat model. Description: Monocrotaline. The format is in vivo. As to conditions: for mean pulmonary artery pressure (mPAP) / right ventricle hypertrophy index (RVHI%) / wall thickness percentage (WT%): p.o. for 3 weeks, 14·3HCl 2.5 mg/kg, tadalafil 5.0 mg/kg, vs model group.
In data set [6] the target is PDE8A1 (480–820) (Homo sapiens, UniProt O60658). The data set is described as follows: In vitro enzymatic activity assay, PDE8A1.
Data set [7] deals with PDE9A2 (181–506) (Homo sapiens, UniProt O76083). Description: In vitro enzymatic activity assay, PDE9A2.
In data set [8] the target is PDE7A1 (130–482) (Homo sapiens, UniProt Q13946). The data set is described as follows: In vitro enzymatic activity assay, PDE7A1.
Data set [9] deals with T1, human ether-à-go-go-related gene (hERG) potassium channel (Homo sapiens, UniProt Q12809).
The target in data set [10] is PDE5A1 (535–860) (Homo sapiens, UniProt O76074). Description: In vitro enzymatic activity assay, PDE5A1.
A short description of data set [11]: Reactivity with cysteine in aqueous phase. The format is physicochemical. Conditions: Cys ratio 1:1, 1H NMR in D2O against time.
Data set [12] can be described thus: In vivo pharmacokinetics of 14·3HCl in rats. Also on record: species or system Sprague–Dawley rats.
For data set [13], the target named is T1, human ether-à-go-go-related gene (hERG) potassium channel. Description: cell-based. Conditions: hERG IC50, peak tail current inhibition, 2−3 cells per concentration.
Data set [14] can be described thus: Solubility in deionized water. The format is physicochemical. As to conditions: pH 7, water.
Data set [15] addresses PDE1B (10–487) (Homo sapiens, UniProt Q01064). The data set is described as follows: In vitro enzymatic activity assay, PDE1B.
Data set [16] has as its target PDE4D2 (86–413) (Homo sapiens, UniProt Q08499). The data set is described as follows: In vitro enzymatic activity assay, PDE4D2.
Data set [17] deals with KM mice. The data set is described as follows: Acute toxicity after single oral dose in mice. The class given is in vivo.
Data set [18] deals with PDE3A (679–1087) (Homo sapiens, UniProt Q14432). The data set is described as follows: In vitro enzymatic activity assay, PDE3A.
For data set [19], the target named is hERG potassium channel (versus PDE10A) (Homo sapiens, UniProt Q12809). Description: in vitro.
The mark [20] stands for this setting: male, Sprague-Dawley, rat, plasma, iv, 2.5 mg/kg.
The mark [21] stands for this setting: male, Sprague-Dawley, rat, plasma, po, 10 mg/kg.

Entries after “also recorded” stand apart in the source; their conditions may differ. A value given as a limit tells only on which side of the number the result lay.

Here are results for seven compounds from article PMC7745062 (Acta Pharmaceutica Sinica. B, 2020).

T1 sequence (Q12809 whole entry): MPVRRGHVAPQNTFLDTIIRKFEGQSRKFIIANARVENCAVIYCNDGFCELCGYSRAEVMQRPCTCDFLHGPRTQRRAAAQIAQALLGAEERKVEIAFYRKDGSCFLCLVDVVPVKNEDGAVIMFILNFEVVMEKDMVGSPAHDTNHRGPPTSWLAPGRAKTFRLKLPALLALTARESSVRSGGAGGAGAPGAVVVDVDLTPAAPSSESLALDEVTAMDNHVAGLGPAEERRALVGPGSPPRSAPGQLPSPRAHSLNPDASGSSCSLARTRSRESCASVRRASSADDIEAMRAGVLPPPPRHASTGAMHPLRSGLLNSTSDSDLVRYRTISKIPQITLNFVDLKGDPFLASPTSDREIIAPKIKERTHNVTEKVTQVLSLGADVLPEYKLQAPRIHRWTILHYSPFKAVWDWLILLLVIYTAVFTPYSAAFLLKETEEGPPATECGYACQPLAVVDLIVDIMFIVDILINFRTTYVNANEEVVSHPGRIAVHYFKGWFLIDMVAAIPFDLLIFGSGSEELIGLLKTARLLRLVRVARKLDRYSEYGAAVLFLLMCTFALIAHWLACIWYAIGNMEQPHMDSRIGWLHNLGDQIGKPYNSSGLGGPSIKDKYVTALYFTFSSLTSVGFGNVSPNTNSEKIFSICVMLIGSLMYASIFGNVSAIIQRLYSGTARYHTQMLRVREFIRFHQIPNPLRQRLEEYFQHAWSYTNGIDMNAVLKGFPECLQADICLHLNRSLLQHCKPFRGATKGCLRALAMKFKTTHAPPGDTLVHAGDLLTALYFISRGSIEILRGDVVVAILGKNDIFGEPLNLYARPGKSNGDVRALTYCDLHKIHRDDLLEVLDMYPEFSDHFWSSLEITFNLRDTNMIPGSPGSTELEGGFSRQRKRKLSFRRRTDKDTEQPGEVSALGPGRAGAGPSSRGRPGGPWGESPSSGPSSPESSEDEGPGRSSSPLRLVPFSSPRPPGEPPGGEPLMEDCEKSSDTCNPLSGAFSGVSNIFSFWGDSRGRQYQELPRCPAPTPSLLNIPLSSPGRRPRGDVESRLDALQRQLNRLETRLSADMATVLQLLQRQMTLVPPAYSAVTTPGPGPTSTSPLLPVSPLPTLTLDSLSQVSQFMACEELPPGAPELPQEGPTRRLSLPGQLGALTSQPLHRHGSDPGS
Sequence of PDE10A (449–770) (Q9Y233 715-1036): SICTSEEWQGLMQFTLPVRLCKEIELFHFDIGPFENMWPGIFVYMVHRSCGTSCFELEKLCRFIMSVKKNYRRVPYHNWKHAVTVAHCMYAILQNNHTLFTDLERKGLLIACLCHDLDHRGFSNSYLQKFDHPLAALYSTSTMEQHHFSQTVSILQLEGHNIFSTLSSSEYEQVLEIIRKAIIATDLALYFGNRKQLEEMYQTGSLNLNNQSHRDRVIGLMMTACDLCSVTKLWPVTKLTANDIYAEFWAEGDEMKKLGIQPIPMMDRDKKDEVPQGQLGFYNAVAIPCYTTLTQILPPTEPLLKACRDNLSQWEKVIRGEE
Sequence of PDE1B (10–487) (Q01064 10-487): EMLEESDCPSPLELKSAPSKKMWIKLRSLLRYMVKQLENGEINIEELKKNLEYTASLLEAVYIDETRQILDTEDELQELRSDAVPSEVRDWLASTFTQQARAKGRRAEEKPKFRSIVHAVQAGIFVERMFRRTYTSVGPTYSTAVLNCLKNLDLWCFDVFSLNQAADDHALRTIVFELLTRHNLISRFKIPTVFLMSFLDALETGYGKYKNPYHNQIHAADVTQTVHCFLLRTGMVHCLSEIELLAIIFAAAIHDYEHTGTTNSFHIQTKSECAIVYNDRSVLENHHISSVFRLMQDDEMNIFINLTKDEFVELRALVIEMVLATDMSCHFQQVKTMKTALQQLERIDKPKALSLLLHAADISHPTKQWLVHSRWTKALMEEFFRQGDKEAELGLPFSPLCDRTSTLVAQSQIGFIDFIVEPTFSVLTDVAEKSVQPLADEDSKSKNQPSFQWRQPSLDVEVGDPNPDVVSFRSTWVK
Sequence of PDE8A1 (480–820) (O60658 480-820): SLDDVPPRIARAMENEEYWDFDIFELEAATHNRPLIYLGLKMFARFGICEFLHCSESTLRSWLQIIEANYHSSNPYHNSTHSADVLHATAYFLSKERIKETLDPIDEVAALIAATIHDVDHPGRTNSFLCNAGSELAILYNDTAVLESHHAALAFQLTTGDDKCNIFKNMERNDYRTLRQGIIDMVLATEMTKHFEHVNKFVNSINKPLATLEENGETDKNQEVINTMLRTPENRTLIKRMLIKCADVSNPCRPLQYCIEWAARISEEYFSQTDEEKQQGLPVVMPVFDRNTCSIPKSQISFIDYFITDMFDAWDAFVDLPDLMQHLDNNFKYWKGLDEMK
Sequence of PDE7A1 (130–482) (Q13946 130-482): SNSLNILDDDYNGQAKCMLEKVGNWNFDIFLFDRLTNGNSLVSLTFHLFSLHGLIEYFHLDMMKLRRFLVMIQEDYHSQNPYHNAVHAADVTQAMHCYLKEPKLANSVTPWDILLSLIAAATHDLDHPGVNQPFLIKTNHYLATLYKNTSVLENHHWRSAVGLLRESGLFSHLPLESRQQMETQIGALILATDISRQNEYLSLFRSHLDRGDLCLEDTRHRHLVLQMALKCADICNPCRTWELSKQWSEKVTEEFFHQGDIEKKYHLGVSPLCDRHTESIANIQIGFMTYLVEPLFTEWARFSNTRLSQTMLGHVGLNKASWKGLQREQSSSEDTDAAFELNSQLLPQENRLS
Sequence of PDE4D2 (86–413) (Q08499 388-715): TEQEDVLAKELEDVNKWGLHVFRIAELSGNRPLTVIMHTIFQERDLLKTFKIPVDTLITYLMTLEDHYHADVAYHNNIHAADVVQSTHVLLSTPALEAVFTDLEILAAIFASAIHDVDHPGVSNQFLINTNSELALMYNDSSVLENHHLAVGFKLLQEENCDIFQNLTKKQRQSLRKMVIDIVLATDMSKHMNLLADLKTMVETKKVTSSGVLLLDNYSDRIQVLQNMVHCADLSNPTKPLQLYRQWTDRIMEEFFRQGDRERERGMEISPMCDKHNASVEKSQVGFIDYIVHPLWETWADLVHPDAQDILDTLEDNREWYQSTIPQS
Sequence of PDE9A2 (181–506) (O76083 241-566): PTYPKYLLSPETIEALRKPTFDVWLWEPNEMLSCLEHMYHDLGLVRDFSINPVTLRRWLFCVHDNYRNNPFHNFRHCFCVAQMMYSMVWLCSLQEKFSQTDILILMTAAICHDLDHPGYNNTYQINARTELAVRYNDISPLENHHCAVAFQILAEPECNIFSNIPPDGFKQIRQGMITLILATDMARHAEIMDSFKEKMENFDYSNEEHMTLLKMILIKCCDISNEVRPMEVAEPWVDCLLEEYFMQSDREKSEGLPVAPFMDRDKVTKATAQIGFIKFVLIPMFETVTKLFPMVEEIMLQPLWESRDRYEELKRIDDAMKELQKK
Sequence of PDE3A (679–1087) (Q14432 679-1087): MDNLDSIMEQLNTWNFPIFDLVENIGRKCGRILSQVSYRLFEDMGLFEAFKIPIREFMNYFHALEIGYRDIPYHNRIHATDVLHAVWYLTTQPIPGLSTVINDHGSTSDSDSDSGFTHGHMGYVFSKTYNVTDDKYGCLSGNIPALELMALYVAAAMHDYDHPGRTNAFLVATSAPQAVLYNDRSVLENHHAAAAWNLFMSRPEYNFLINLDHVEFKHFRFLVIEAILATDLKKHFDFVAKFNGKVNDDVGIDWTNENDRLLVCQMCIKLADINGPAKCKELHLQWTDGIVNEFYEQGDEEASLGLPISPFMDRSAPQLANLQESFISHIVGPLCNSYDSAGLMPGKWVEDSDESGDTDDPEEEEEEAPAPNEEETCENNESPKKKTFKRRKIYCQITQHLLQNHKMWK
Sequence of PDE2A (580–919) (O00408 580-919): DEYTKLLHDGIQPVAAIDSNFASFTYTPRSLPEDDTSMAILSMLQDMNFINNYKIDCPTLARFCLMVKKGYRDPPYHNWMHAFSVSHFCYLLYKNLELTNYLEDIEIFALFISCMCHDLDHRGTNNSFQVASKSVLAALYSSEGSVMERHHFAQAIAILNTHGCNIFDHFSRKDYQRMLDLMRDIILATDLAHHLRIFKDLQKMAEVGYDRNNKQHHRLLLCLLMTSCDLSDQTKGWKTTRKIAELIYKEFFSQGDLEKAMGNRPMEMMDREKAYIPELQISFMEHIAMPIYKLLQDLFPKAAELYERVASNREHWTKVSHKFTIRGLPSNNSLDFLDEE

For `Cc1ccc2c(c1)nc(/C=C/c1cccc3cccnc13)n2-c1cccc(OCCCN2CCOCC2)c1.Cl` [13·3HCl, (E)-4-(3-(3-(5-Methyl-2-(2-(quinolin-8-yl)vinyl)-1H-benzo[d]imidazole-1-yl)phenoxy)propyl)morpholine hydrochloride], in [1], the “CLint (intrinsic body clearance)” value is reported as 127.7 mL/(min·g·protein) and the half-life at 0.1 μmol/L came out at 16 min.

With `Cc1ccc2c(c1)nc(/C=C/c1cccc3cccnc13)n2-c1ccccc1` [Compound 4, (E)-8-(2-(5-Methyl-1-phenyl-1H-benzo[d]imidazol-2-yl)vinyl)quinoline], the “enhancement of PDE10A inhibition relative to compound 2” value in data set [2] (C=C bond instead of C–C single bond) was determined as 3 fold. This compound also returned a half-life at 1.5 μmol/L in [3] of 17.4 min.

As for `COc1cccc(-n2c(/C=C/c3cccc4cccnc34)nc3cc(C)ccc32)c1` [Compound 10, (E)-8-(2-(1-(3-Methoxyphenyl)-5-methyl-1H-benzo[d]imidazole-2-yl)vinyl)quinoline], in data set [1], the “CLint (intrinsic body clearance)” value is listed as 999.4 mL/(min·g·protein) and the half-life at 0.1 μmol/L worked out at 2.1 min.

As for `Cc1ccc2c(c1)nc(/C=C/c1cccc3cccnc13)n2-c1cccc(S(=O)(=O)N2CCN(C)CC2)c1` [Compound 11, (E)-8-(2-(5-Methyl-1-(3-((4-methylpiperazin-1-yl)sulfonyl)phenyl)-1H-benzo[d]imidazole-2-yl)vinyl) quinoline], in data set [1], the “CLint (intrinsic body clearance)” value is recorded as 1390 mL/(min·g·protein) and the half-life at 0.1 μmol/L worked out at 1.5 min.

`Cc1ccc2c(c1)nc(/C=C/c1cccc3cccnc13)n2-c1cccc(CN2CCN(C)CC2)c1` [Compound 12, (E)-8-(2-(5-Methyl-1-(3-((4-methylpiperazin-1-yl)methyl)phenyl)-1H-benzo[d]imidazole-2-yl)vinyl) quinoline]: in data set [1], the “CLint (intrinsic body clearance)” value was 198.1 mL/(min·g·protein) and the half-life at 0.1 μmol/L worked out at 11 min.

As for `Cc1ccc2c(c1)nc(/C=C/c1cccc3cccnc13)n2-c1cccc(OCCCN2CCN(C)CC2)c1.Cl` [Compound 14·3HCl, (E)-8-(2-(5-Methyl-1-(3-(3-(4-methylpiperazin-1-yl)propoxy)phenyl)-1H-benzo[d]imidazole-2-yl)vinyl)quinoline hydrochloride], the IC50 was above 10 µM in data set [4]; above 10 µM in data set [6]; above 10 µM in data set [7]; above 10 µM in [8]; above 10 µM in data set [10]; 4.5 µM in [13]. The IC50 in [15], in data set [16] and in data set [18] was above 10 µM each time. Moreover, the Selectivity fold in data set [4] (IC50(PDE2A)/IC50(PDE10A2)), in data set [6] (IC50(PDE8A1)/IC50(PDE10A2)), in data set [7] (IC50(PDE9A2)/IC50(PDE10A2)), in data set [8] (IC50(PDE7A1)/IC50(PDE10A2)), in [10] (IC50(PDE5A1)/IC50(PDE10A2)) and in [15] (IC50(PDE1B)/IC50(PDE10A2)) was above 3500 fold in each case. The Selectivity fold in data set [16] (IC50(PDE4D2)/IC50(PDE10A2)) and in data set [18] (IC50(PDE3A)/IC50(PDE10A2)) was above 3500 fold throughout. The “improvement of PAH medical indicators” value in data set [5] (14·3HCl 2.5 mg/kg p.o. compared with tadalafil 5.0 mg/kg p.o.) is recorded as “comparable to tadalafil; also recorded: significantly ameliorating these PAH medical indicators; also recorded: significantly improved typical disease medical indicators”. Also, in [5], the “mean pulmonary artery pressure (mPAP)” value is “decreased”. Moreover, the “right ventricle hypertrophy index (RVHI%)” value in data set [5] is “decreased”. In addition, in data set [5], the “wall thickness percentage (WT%)” value is “decreased”. Also, the “safety margin between hERG IC50 and plasma peak concentration (Cmax)” value in data set [9] worked out at 36 fold. Besides, the “reactivity of C=C bridge with cysteine” value in [11] is given as “insensitive to react with cysteine”. Moreover, the AUC(0-inf) in data set [12] (setting [20]) is 1820 ± 297 ng·h/mL; in data set [12] (setting [21]), 3550 ± 1010 ng·h/mL. Besides, the AUC(0-t) came out at 1670 ± 184 ng·h/mL in [12] (setting [20]) and 3310 ± 812 ng·h/mL in [12] (setting [21]). In addition, the Cmax in [12] (setting [20]) turned out to be 230 ± 50 ng/mL; in data set [12] (setting [21]), 272 ± 25 ng/mL. For the same compound, the MRT last is 378 ± 48 min in [12] (setting [20]) and 504 ± 42 min in data set [12] (setting [21]). The Tmax in data set [12] (setting [20]) is 24 ± 24 min; in data set [12] (setting [21]) it was 360 ± 120 min. In data set [12] (setting [20]), this compound showed a clearance of 23.3 mL/min/kg. Moreover, the results for the half-life in data set [12] (setting [20]) and in data set [12] (setting [21]) were 402 ± 90 min and 312 ± 54 min, respectively. In addition, the “bioavailability, fold higher than A” value in data set [12] (rats, oral) was around 20 fold. In data set [2] (against other PDE families), the “selectivity over other PDE subtypes” value is reported as above 3500 fold. This compound also registered a solubility in data set [14] of 4700 µg/mL. Further, the acute toxicity entry in data set [17] (oral administration) is reported as “no obvious acute toxicity”. The dose well tolerated in [17] (single oral dose) is at most 1000 mg/kg. Further, in data set [1], the “CLint (intrinsic body clearance)” value was 85.1 mL/(min·g·protein). The compound also showed a half-life at 0.1 μmol/L in [1] of 25 min. Further, the selectivity ratio in data set [19] worked out at 1600.

`CN1CC(=O)N2[C@H](c3ccc4c(c3)OCO4)c3[nH]c4ccccc4c3C[C@@H]2C1=O` [tadalafil, reference compound]: in data set [5], the “mean pulmonary artery pressure (mPAP)” value is on record as “decreased”, the “right ventricle hypertrophy index (RVHI%)” value is given as “decreased” and the “wall thickness percentage (WT%)” value is “decreased”.
